From patent US11974990B2, “TXNIP-TRX complex inhibitors and methods of using the same” (City of Hope, priority 2018, dated 2024)
“Also recorded” adds a separate entry of the source.

Tests used:
TXNIP-TRX complex = biological target: T1, TXNIP-TRX complex (Homo sapiens, UniProt Q9H3M7); assay: Co-IP of TXNIP with TRX in THP1 monocytes treated with compounds under high glucose; format: cell-based
T1 construct: Co-immunoprecipitation (Co-IP) of TXNIP with TRX in THP 1 monocytes cells treated with compounds under high glucose condition; endogenous in cells; host or cells: THP1 human monocytes cultured in 25 mM glucose
T1 sequence (Q9H3M7 1-391): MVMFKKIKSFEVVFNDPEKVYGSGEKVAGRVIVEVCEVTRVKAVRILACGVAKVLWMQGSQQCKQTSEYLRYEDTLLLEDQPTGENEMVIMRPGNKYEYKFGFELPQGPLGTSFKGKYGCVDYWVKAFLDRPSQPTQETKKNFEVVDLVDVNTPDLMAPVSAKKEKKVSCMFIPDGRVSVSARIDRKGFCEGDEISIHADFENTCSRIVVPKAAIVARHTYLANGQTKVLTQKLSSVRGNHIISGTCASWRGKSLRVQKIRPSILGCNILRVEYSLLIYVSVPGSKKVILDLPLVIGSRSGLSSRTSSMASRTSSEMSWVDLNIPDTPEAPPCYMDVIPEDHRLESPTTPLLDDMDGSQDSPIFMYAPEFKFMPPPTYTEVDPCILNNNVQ
Procedure: FIGS. 4A-4B. Co-IP with anti-TRX in THP 1 cells treated with compounds under high glucose condition. THP1 cells were treated by 10 uM compounds over night, then glucose was added up to 25 mM. The cells were cultured for 72-96 h. Cell extracts were prepared using cell extract buffer (Thermo Fisher Scientific) and Co-IP were performed with mouse anti-TRX (abcam).
Assay 1: Co-immunoprecipitation (Co-IP) of TXNIP with TRX in THP 1 monocytes cells treated with compounds under high glucose condition. In this assay, we looked for compounds that can interfere with the interaction between TXNIP and TRX in THP-1 monocytes treated with HG. So here compounds are added to cells in culture. […] So we picked the candidates only if the results are repeatable.
Co-IP with compounds treated THP1 under high glucose condition. THP1 cells were treated with compounds (2.5 uM) overnight and glucose was add to 25 mM and culture for 3-5 days, then coIP were carried using co-IP protocol.
1. Transfer the cultured cells from the culture dish to a 15-mL conical tube. 2. Centrifuge at 500×g for 2 min at 4° C. and remove the supernatant. 3. Wash with ice-cold PBS and centrifuge at 500×g for 2 min at 4° C. Remove the supernatant. 4. Repeat Step 3 twice.
5. Resuspend the cell pellet in ice-cold cell lysis buffer (1 mL per 1×10^7 cells) and incubate on ice for 10 min. 6. Sonicate cells in ice bath three times for 5 second pulses each. 7. Centrifuge at 13,000×g at 4° C. for 10 min, and transfer the supernatant to a fresh tube. Store the tube on ice for further use, or for long storage at −80° C.
8. Resuspend the magnetic beads by pipetting up and down for several times. 9. Transfer 20 μL of bead slurry to a fresh tube. Place the tube in a magnetic separation rack […]. Carefully remove the supernatant once the solution is clear. 10. […]
Note: Pre-clearing the lysate is recommended to reduce the non-specific binding. However, if the protein is detected by western blotting, pre-clearing may not be necessary unless a contaminating protein is interfering with visualization of the protein of interest. […]

TXNIP mRNA = TXNIP mRNA expression (RT-PCR) in murine RAW macrophages; format: cell-based; settings: RAW cells, 25 mM glucose, 72 h (FIG. 10A)
Procedure: FIGS. 10A-10B. FIG. 10A. […] RAW cells were cultured in 25 mM glucose with C1 (uM) for 72 h. Total RNA was prepared. RT-PCR was performed. Data shown are the mean+SEM from triplicates. Statistical analysis was performed for each column vs. high glucose (HG) DMSO using one-way ANOVA: *<0.0001. FIG. 10B. […] RAW cells were cultured in 25 mM glucose with C1 (uM) for 72 hours. Total RNA was prepared. RT-PCR was performed. Data shown are the mean+SEM from triplicates. Statistical analysis was performed for each column vs. HG DMSO using one-way ANOVA: *<0.0001.
RNA extraction and quantitative RT-PCR. RNA was extracted using the Direct-zol™ RNA MiniPrep Plus (Zymo Research). Reverse transcription of RNA samples into cDNA was performed using the GeneAmp RNA PCR Kit (Applied Biosystems), dNTP (from Roche Applied Science), Rnase inhibitor, MULV Reverse Transcriptase and Random hexamers reagent (all from Invitrogen). Diluted cDNA was quantified using real-time PCR performed with Power SYBR Green qPCR MasterMix (Applied Biosystem) and 7500 real-time PCR system (Applied Biosystems). The HPRT1 gene was used as an internal control.

CC(C)C(C(=O)O)N1C(=O)c2ccncc2C1=O (stereo not drawn) [Compound C1, 2-(1,3-dioxo-1,3-dihydro-2H-pyrrolo[3,4-c]pyridin-2-yl)-3-methylbutanoic acid]
TXNIP association/interaction with TRX (co-IP, blot with TXNIP antibody) (TXNIP-TRX complex; THP1, 25 mM glucose, 5 uM C1, 16-72 h time course, nuclear cell extracts): Inhibition of TXNIP-TRX interaction; also recorded: significantly reduced at 48 h | HG-induced TXNIP-TRX co-IP band intensity (TXNIP-TRX complex; THP1 cells, compounds added to cells in culture overnight, glucose to 25 mM, 72-96 h, anti-TRX IP): inhibit high glucose-induced TXNIP-TRX co-immunoprecipitation; also recorded: reproducibly shows a reduction in the HG-induced band | TXNIP mRNA expression (TXNIP mRNA): inhibits TXNIP mRNA expression; also recorded: inhibited TXNIP and TNF-α mRNA expression
